We go through twelve molecules from patent US20240124460A1, “METHODS AND COMPOSITIONS FOR TARGETED PROTEIN DEGRADATION” (Ranok Therapeutics (Hangzhou) Co. Ltd., priority 2020, published 2024).

Assay [1] addresses T1, HSP90α protein (Homo sapiens, UniProt P07900).
T1 construct: purchased BPS Bioscience #50298
Kind of assay: HSP90α-binding FP (BODIPY) assay. As to conditions: FP competition with BODIPY-labeled RNK04010. An outline of the steps: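 Fluorescence polarization measured competition with N-terminal human HSP90α, using either FITC-geldanamycin or BODIPY-labelled triazolone RNK04010 as tracer (5 nM final each). Compounds were tested in 2.5-fold dilutions from 20 μM to 5.2 nM, with incubation at 25 °C for 120 min (FITC) or 300 min (BODIPY).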

In assay [2] the test system is U-87 MG human glioblastoma. Kind of assay: U87 MG CCK-8 proliferation assay. Format: cell-based. To be noted: U-87 MG cells, read-out: U87MG CCK-8. A digest of the protocol: (§1)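 Cells grown per ATCC recommendations were treated with 3-fold serial compound dilutions from 20 μM to 1.02 nM. CCK-8 absorbance was converted to % inhibition against DMSO-treated cells, with cell-free medium containing DMSO as the blank.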

In assay [3] the test system is MV-4-11 human acute myeloid leukemia. Nature of the assay: MV-4-11 CCK-8 proliferation assay. Format: cell-based. As to conditions: MV-4-11 cells, 72 hr. A digest of the protocol: as §1

Like-named read-outs stand apart in the source and are kept apart here. Where only a bound is given, the exact number is not on record here.

As to `CCOc1cc(N2CCC(C(=O)N3CCC(CN4CCN(C(=O)CNC(=O)O[C@H]5CC[C@H](Nc6cc(-n7nc(C(F)(F)F)c8c7CC(C)(C)CC8=O)ccc6C(N)=O)CC5)CC4)CC3)CC2)ccc1Nc1ncc2c(n1)N(C)c1ccccc1C(=O)N2C` [Compound 122, (1R,4R)-4-((2-carbamoyl-5-(6,6-dimethyl-4-oxo-3-(trifluoromethyl)-4,5,6,7-tetrahydro-1H-indazol-1-yl)phenyl)amino)cyclohexyl (2-(4-((1-(1-(4-((5,11-dimethyl-6-oxo-6,11-dihydro-5H-benzo[e]pyrimido[5,4-b][1,4]diazepin-2-yl)amino)-3-ethoxyphenyl)piperidine-4-carbonyl)piperidin-4-yl)methyl)piperazin-1-yl)-2-oxoethyl)carbamate], in assay [1], the IC50 was greater than 1000 nM. The EC50 was greater than 1000 nM in assay [2] (Homo sapiens, U-87 MG, 72 h) and 100 to 1000 nM in assay [3] (Homo sapiens, MV4-11).
The molecule `CCOc1cc(N2CCC(C(=O)N3CCN(Cc4ccc(-n5c(O)nnc5-c5cc(C)c(O)cc5O)cc4)CC3)CC2)ccc1Nc1ncc2c(n1)N(C)c1ccccc1C(=O)N2C` [Compound 048, 2-((4-(4-(4-(4-(3-(2,4-dihydroxy-5-methylphenyl)-5-hydroxy-4H-1,2,4-triazol-4-yl)benzyl)piperazine-1-carbonyl)piperidin-1-yl)-2-ethoxyphenyl)amino)-5,11-dimethyl-5,11-dihydro-6H-benzo[e]pyrimido[5,4-b][1,4]diazepin-6-one] gave an IC50 in assay [1] of 100 to 1000 nM. Besides, the EC50 was 100 to 1000 nM in assay [2] (Homo sapiens, U-87 MG, 72 h) and less than 100 nM in assay [3] (Homo sapiens, MV4-11).
As to `CCOc1cc(N2CCC(C(=O)N3CCC(CN4CCN(Cc5ccc(-n6c(C(=O)NCC(F)(F)F)nnc6-c6cc(C)c(O)cc6O)cc5)CC4)CC3)CC2)ccc1Nc1ncc2c(n1)N(S(C)(=O)=O)c1ccccc1C(=O)N2C` [Compound 081, 5-(2,4-dihydroxy-5-methylphenyl)-4-(4-((4-((1-(1-(3-ethoxy-4-((5-methyl-11-(methylsulfonyl)-6-oxo-6,11-dihydro-5H-benzo[e]pyrimido[5,4-b][1,4]diazepin-2-yl)amino)phenyl)piperidine-4-carbonyl)piperidin-4-yl)methyl)piperazin-1-yl)methyl)phenyl)-N-(2,2,2-trifluoroethyl)-4H-1,2,4-triazole-3-carboxamide], in assay [1], the IC50 was less than 100 nM. The EC50 in assay [2] (Homo sapiens, U-87 MG, 72 h) is 100 to 1000 nM; in assay [3] (Homo sapiens, MV4-11), less than 100 nM.
Molecule `CCOc1cc(N2CCC(C(=O)NCc3ccc(-n4c(O)nnc4-c4cc(CC)c(O)cc4O)cc3F)CC2)ccc1Nc1ncc2c(n1)N(S(C)(=O)=O)c1ccccc1C(=O)N2C` [Compound 088, 1-(3-ethoxy-4-((5-methyl-11-(methylsulfonyl)-6-oxo-6,11-dihydro-5H-benzo[e]pyrimido[5,4-b][1,4]diazepin-2-yl)amino)phenyl)-N-(4-(3-(5-ethyl-2,4-dihydroxyphenyl)-5-hydroxy-4H-1,2,4-triazol-4-yl)-2-fluorobenzyl)piperidine-4-carboxamide] returned an IC50 in assay [1] of 100 to 1000 nM. Also, the EC50 was greater than 1000 nM in assay [2] (Homo sapiens, U-87 MG, 72 h) and 100 to 1000 nM in assay [3] (Homo sapiens, MV4-11).
Consider `CCOc1cc(N2CCC(C(=O)NCC3CCN(C(=O)C4CCN(Cc5ccc(-n6c(O)nnc6-c6cc(C(C)C)c(O)cc6O)cc5)CC4)CC3)CC2)ccc1Nc1ncc2c(n1)N(C)c1ccccc1C(=O)N2C` [Compound 041, N-((1-(1-(4-(3-(2,4-dihydroxy-5-isopropylphenyl)-5-hydroxy-4H-1,2,4-triazol-4-yl)benzyl)piperidine-4-carbonyl)piperidin-4-yl)methyl)-1-(4-((5,11-dimethyl-6-oxo-6,11-dihydro-5H-benzo[e]pyrimido[5,4-b][1,4]diazepin-2-yl)amino)-3-ethoxyphenyl)piperidine-4-carboxamide], for which the IC50 in assay [1] was less than 100 nM. The EC50 in assay [2] (Homo sapiens, U-87 MG, 72 h) was less than 100 nM; in assay [3] (Homo sapiens, MV4-11) it was less than 100 nM.
The molecule `CCOc1cc(N2CCC(C(=O)N3CCC(CN4CCN(Cc5ccc(-n6c(C(=O)NC7(C)CC7)nnc6-c6cc(CC)c(O)cc6O)cc5)CC4)CC3)CC2)ccc1Nc1ncc2c(n1)N(S(C)(=O)=O)c1ccccc1C(=O)N2C` [Compound 083, 4-(4-((4-((1-(1-(3-ethoxy-4-((5-methyl-11-(methylsulfonyl)-6-oxo-6,11-dihydro-5H-benzo[e]pyrimido[5,4-b][1,4]diazepin-2-yl)amino)phenyl)piperidine-4-carbonyl)piperidin-4-yl)methyl)piperazin-1-yl)methyl)phenyl)-5-(5-ethyl-2,4-dihydroxyphenyl)-N-(1-methylcyclopropyl)-4H-1,2,4-triazole-3-carboxamide] registered an IC50 in assay [1] of less than 100 nM. Besides, the EC50 in assay [2] (Homo sapiens, U-87 MG, 72 h) is less than 100 nM; in assay [3] (Homo sapiens, MV4-11), less than 100 nM.
`CCOc1cc(N2CCC(C(=O)NCc3ccc(-n4c(O)nnc4-c4cc(C)c(O)cc4O)cc3)CC2)ccc1Nc1ncc2c(n1)N(S(C)(=O)=O)c1ccccc1C(=O)N2C` [Compound 073, N-(4-(3-(2,4-dihydroxy-5-methylphenyl)-5-hydroxy-4H-1,2,4-triazol-4-yl)benzyl)-1-(3-ethoxy-4-((5-methyl-11-(methylsulfonyl)-6-oxo-6,11-dihydro-5H-benzo[e]pyrimido[5,4-b][1,4]diazepin-2-yl)amino)phenyl)piperidine-4-carboxamide] registered an IC50 in assay [1] greater than 1000 nM. In addition, the EC50 in assay [2] (Homo sapiens, U-87 MG, 72 h) was greater than 1000 nM; in assay [3] (Homo sapiens, MV4-11) it was greater than 1000 nM.
In the case of `CCOc1cc(N2CCC(C(=O)NCCOCCOCCNC(=O)O[C@H]3CC[C@H](Nc4cc(-n5nc(C(F)(F)F)c6c5CC(C)(C)CC6=O)ccc4C(N)=O)CC3)CC2)ccc1Nc1ncc2c(n1)N(S(C)(=O)=O)c1ccccc1C(=O)N2C` [Compound 116, (1R,4R)-4-((2-carbamoyl-5-(6,6-dimethyl-4-oxo-3-(trifluoromethyl)-4,5,6,7-tetrahydro-1H-indazol-1-yl)phenyl)amino)cyclohexyl (2-(2-(2-(1-(3-ethoxy-4-((5-methyl-11-(methylsulfonyl)-6-oxo-6,11-dihydro-5H-benzo[e]pyrimido[5,4-b][1,4]diazepin-2-yl)amino)phenyl)piperidine-4-carboxamido)ethoxy)ethoxy)ethyl)carbamate], the IC50 in assay [1] is greater than 1000 nM. Also, the EC50 is greater than 1000 nM in assay [2] (Homo sapiens, U-87 MG, 72 h) and 100 to 1000 nM in assay [3] (Homo sapiens, MV4-11).
Take `CCOc1cc(N2CCC(C(=O)N3CCC(N4CCN(Cc5ccc(-n6c(O)nnc6-c6cc(C(C)C)c(O)cc6O)cc5F)CC4)CC3)CC2)ccc1Nc1ncc2c(n1)N(S(C)(=O)=O)c1ccccc1C(=O)N2C` [Compound 059, 2-((4-(4-(4-(4-(4-(3-(2,4-dihydroxy-5-isopropylphenyl)-5-hydroxy-4H-1,2,4-triazol-4-yl)-2-fluorobenzyl)piperazin-1-yl)piperidine-1-carbonyl)piperidin-1-yl)-2-ethoxyphenyl)amino)-5-methyl-11-(methylsulfonyl)-5,11-dihydro-6H-benzo[e]pyrimido[5,4-b][1,4]diazepin-6-one]: the IC50 in assay [1] was less than 100 nM. Also, the EC50 is less than 100 nM in assay [2] (Homo sapiens, U-87 MG, 72 h) and less than 100 nM in assay [3] (Homo sapiens, MV4-11).
On to `CCOc1cc(N2CCC(C(=O)N3CCC(CN4CCN(C(=O)CNC(=O)O[C@H]5CC[C@H](Nc6cc(-n7nc(C(F)(F)F)c8c7CC(C)(C)CC8=O)ccc6C(N)=O)CC5)CC4)CC3)CC2)ccc1Nc1ncc2c(n1)N(S(C)(=O)=O)c1ccccc1C(=O)N2C` [Compound 119, (1R,4R)-4-((2-carbamoyl-5-(6,6-dimethyl-4-oxo-3-(trifluoromethyl)-4,5,6,7-tetrahydro-1H-indazol-1-yl)phenyl)amino)cyclohexyl (2-(4-((1-(1-(3-ethoxy-4-((5-methyl-11-(methylsulfonyl)-6-oxo-6,11-dihydro-5H-benzo[e]pyrimido[5,4-b][1,4]diazepin-2-yl)amino)phenyl)piperidine-4-carbonyl)piperidin-4-yl)methyl)piperazin-1-yl)-2-oxoethyl)carbamate], for which the IC50 in assay [1] was greater than 1000 nM. In addition, the EC50 in assay [2] (Homo sapiens, U-87 MG, 72 h) is greater than 1000 nM; in assay [3] (Homo sapiens, MV4-11) it was less than 100 nM.
Regarding `CCOc1cc(N2CCC(C(=O)N3CCN(Cc4ccc(-n5c(O)nnc5-c5cc(C(C)C)c(O)cc5O)cc4)[C@H](C)C3)CC2)ccc1Nc1ncc2c(n1)N(C)c1ccccc1C(=O)N2C` [Compound 051, (R)-2-((4-(4-(4-(4-(3-(2,4-dihydroxy-5-isopropylphenyl)-5-hydroxy-4H-1,2,4-triazol-4-yl)benzyl)-3-methylpiperazine-1-carbonyl)piperidin-1-yl)-2-ethoxyphenyl)amino)-5,11-dimethyl-5,11-dihydro-6H-benzo[e]pyrimido[5,4-b][1,4]diazepin-6-one], the IC50 in assay [1] lay in the range of 100 to 1000 nM. The EC50 in assay [2] (Homo sapiens, U-87 MG, 72 h) is less than 100 nM; in assay [3] (Homo sapiens, MV4-11), less than 100 nM.
For “(1R,4R)-4-((2-carbamoyl-5-(6,6-dimethyl-4-oxo-3-(trifluoromethyl)-4,5,6,7-tetrahydro-1H-indazol-1-yl)phenyl)amino)cyclohexyl (3-(1-(4-((5,11-dimethyl-6-oxo-6,11-dihydro-5H-benzo[e]pyrimido[5,4-b][1,4]diazepin-2-yl)amino)-3-ethoxyphenyl)piperidine-4-carboxamido)propyl)carbamate [Compound 102]”, the IC50 in assay [1] is greater than 1000 nM. The EC50 is greater than 1000 nM in assay [2] (72 hr) and 100 to 1000 nM in assay [3].
